Common to all, as to assay type: toxicity, cell-based
Data set [1] in a line: MMV: MTT Cytotoxicity Assay Day 7 pi of Assay #7 (compound washed out Day 1 pi), U87-CD4-CXCR4 cells, % cell death @ 5mM compound. Particulars: human, u87-cd4-cxcr4, 5000 µM.
Data set [2] is described as follows: MMV: MTT Cytotoxicity Assay Day 3 pi, U87-CD4-CCR5 cells, % cell death @ 5mM compound. The settings on record: human, u87-cd4-ccr5, 5000 µM.
Data set [3] can be described thus: MMV: MTT Cytotoxicity Assay Day 7 pi of Assay #10 (NO washout), U87-CD4-CCR5 cells, % cell death @ 5mM compound. The settings on record: human, u87-cd4-ccr5, 5000 µM.
Data set [4] can be described thus: MMV: MTT Cytotoxicity Assay Day 7 pi of Assay #11 (NO washout), U87-CD4-CXCR4 cells, % cell death @ 5mM compound. Particulars: human, u87-cd4-cxcr4, 5000 µM.
Data set [5] is described as follows: MMV: MTT Cytotoxicity Assay Day 3 pi, U87-CD4-CXCR4 cells, % cell death @ 5mM compound. Particulars: human, u87-cd4-cxcr4, 5000 µM.
Data set [6] in a line: MMV: MTT Cytotoxicity Assay Day 7 pi of Assay #6 (compound washed out Day 1 pi), U87-CD4-CCR5 cells, % cell death @ 5mM compound. The settings on record: human, u87-cd4-ccr5, 5000 µM.

With `COc1ccccc1N1CCN(C(CNS(=O)(=O)c2ccc(Cl)cc2)c2cccnc2)CC1` (centres undefined), the “% Cell Death” value in data set [1] was found to be 81; in data set [2] it was 109; in data set [3], 130; in data set [4], 105; in data set [5] it was 94; in data set [6], 83.
For the compound `COc1ccc(Nc2cc(C)nc(NCc3ccccc3)n2)cc1`, the “% Cell Death” value in data set [1] is listed as 30; in data set [2] it was 41; in data set [3], 92; in data set [4], 73; in data set [5] it was 94; in data set [6], 30.
Consider `N=c1c2ccccc2nnn1-c1cccc(C(F)(F)F)c1`, for which the “% Cell Death” value in data set [1] is 86; in data set [2], 106; in data set [3], 101; in data set [4], 112; in data set [5], 99; in data set [6], 68.
For `Cc1c(C)n(Cc2ccc(F)cc2)c2ccc(C(=O)NCc3ccco3)cc12`, the “% Cell Death” value was determined as 18 in data set [1]; 106 in data set [2]; 146 in data set [3]; 103 in data set [4]; 95 in data set [5]; 78 in data set [6].
On to `COc1cc(C(=O)ON=C(N)Cc2cccc3ccccc23)cc(OC)c1OC`, for which the “% Cell Death” value in data set [1] was 4; in data set [2], 14; in data set [3] it was 100; in data set [4], -15; in data set [5], 32; in data set [6] it was -13.
Turning to `CCOc1ccccc1CNC(=O)C1c2ccccc2C(=O)N(CC(C)C)C1c1cccs1` (centres undefined), the “% Cell Death” value in data set [1] was -26; in data set [2] it was -26; in data set [3] it was 20; in data set [4] it was 4; in data set [5] it was 12; in data set [6], 2.
In the case of `CC1CCN(Cc2c(O)ccc3cc(-c4nc5ccccc5s4)c(=O)oc23)CC1`, the “% Cell Death” value in data set [1] is -13; in data set [2] it was 12; in data set [3], 30; in data set [4], 9; in data set [5], 33; in data set [6] it was 16.
As to `CCOc1ccc(CN2CCN(CC(O)COc3ccc(OCC(O)CN4CCN(Cc5ccc(OCC)cc5)CC4)cc3)CC2)cc1` (centres undefined), the “% Cell Death” value was 21 in data set [1]; -5 in data set [2]; 115 in data set [3]; -7 in data set [4]; 50 in data set [5]; 65 in data set [6].
As for `CN(C)c1ccc(N=Cc2ccc(N3CCOCC3)cc2)cc1`, the “% Cell Death” value was 97 in data set [1]; 108 in data set [2]; 135 in data set [3]; 109 in data set [4]; 100 in data set [5]; 92 in data set [6].
On to `Cc1ccc2c(C)nc(Nc3nc(C)cc(-c4ccccc4)n3)nc2c1`, for which the “% Cell Death” value in data set [1] was 97; in data set [2] it was 107; in data set [3], 114; in data set [4], 104; in data set [5] it was 99; in data set [6], 98.
As to `COc1ccccc1N1C(=N)SC(=Cc2ccc(OCc3ccccc3F)cc2)C1=O`, the “% Cell Death” value amounted to 7 in data set [1]; 17 in data set [2]; 30 in data set [3]; 24 in data set [4]; 24 in data set [5]; 23 in data set [6].
For `OC1=C2C(=Nc3ccccc3SC2c2ccc(Br)cc2)c2ccccc21` (centres undefined), the “% Cell Death” value in data set [1] is recorded as 7; in data set [2], 11; in data set [3] it was 30; in data set [4] it was 0; in data set [5], 31; in data set [6], -10.
Regarding `C=C(C)CCC(C)N1CCC(N2CCC(C(=O)NCCc3ccccc3)CC2)CC1` (centres undefined), the “% Cell Death” value was -27 in data set [1]; -11 in data set [2]; 11 in data set [3]; -11 in data set [4]; 3 in data set [5]; 23 in data set [6].
Take `COc1ccc(-c2cn3c(C(=O)Nc4ccccc4Cl)c(-c4ccccc4)c4c3n2CCCC4)cc1`: the “% Cell Death” value in data set [1] is on record as -5; in data set [2], -20; in data set [3], 30; in data set [4], -35; in data set [5], 35; in data set [6] it was -4.
With `O=C(NC1CCCC1)c1ccc(N2CCC(NCc3cccc(C(F)(F)F)c3)CC2)cc1`, the “% Cell Death” value in data set [1] was 7; in data set [2] it was 4; in data set [3], -4; in data set [4], 6; in data set [5], 35; in data set [6] it was -1.
In the case of `COc1ccc2c(c1)OC(O)(C(F)(F)C(F)(F)F)CC2=O` (centres undefined), the “% Cell Death” value in data set [1] is recorded as 4; in data set [2] it was 42; in data set [3], 62; in data set [4], 88; in data set [5], 47; in data set [6], 37.
`CCOc1cccc(C(=O)Nc2ccc(-c3nc4ccccc4[nH]3)cc2)c1`: the “% Cell Death” value is given as -23 in data set [1]; -33 in data set [2]; 6 in data set [3]; 65 in data set [4]; 46 in data set [5]; 8 in data set [6].
On to `COc1ccc2nc(C)cc(Nc3ccccc3O)c2c1`, for which the “% Cell Death” value in data set [1] is listed as -12; in data set [2], 5; in data set [3] it was 6; in data set [4], -34; in data set [5], 30; in data set [6] it was 14.
With `OC(CNC1CCCCC1)Cn1c2ccccc2c2ccccc21` (centres undefined), the “% Cell Death” value in data set [1] is reported as -20; in data set [2] it was -3; in data set [3], 35; in data set [4], -3; in data set [5], 14; in data set [6], 13.
For the compound `COc1ccc(C2c3ccc4ccccc4c3Oc3ncn(CCCn4ccnc4)c(=N)c32)cc1OC` (centres undefined), the “% Cell Death” value in data set [1] is reported as -25; in data set [2] it was 39; in data set [3] it was -6; in data set [4], -30; in data set [5] it was 38; in data set [6], -22.
Consider `CN1C=C(c2ccc3ccccc3n2)C(c2c[nH]c3ccccc23)c2ccccc21` (centres undefined), for which the “% Cell Death” value amounted to 38 in data set [1]; 94 in data set [2]; 161 in data set [3]; 0 in data set [4]; 46 in data set [5]; 13 in data set [6].
On to `CN(C)c1ccc(C=Cc2nc(=O)c3ccccc3o2)cc1`, for which the “% Cell Death” value in data set [1] is 0; in data set [2], 39; in data set [3], 46; in data set [4], 20; in data set [5] it was 38; in data set [6], -14.
With `CC(C)(C)C(=O)Nc1ccc(C(=O)Nc2cccc(-c3nc4ccccc4[nH]3)c2)cc1`, the “% Cell Death” value in data set [1] is -22; in data set [2], 17; in data set [3], 4; in data set [4] it was 85; in data set [5], 20; in data set [6] it was 18.
`CCOc1ccc2nc(C)cc(Nc3ccc(Br)cc3)c2c1`: the “% Cell Death” value is given as 72 in data set [1]; 82 in data set [2]; 108 in data set [3]; 106 in data set [4]; 64 in data set [5]; 26 in data set [6].
On to `CCCCCCc1cc2cc(-c3csc(C=Cc4ccccc4)n3)c(=O)oc2cc1O`, for which the “% Cell Death” value in data set [1] is -39; in data set [2] it was 35; in data set [3] it was 24; in data set [4] it was -36; in data set [5], 41; in data set [6] it was -23.
Take `CCCN(CCC)CC(O)COc1ccccc1C(=O)Nc1ccccc1` (centres undefined): the “% Cell Death” value is 14 in data set [1]; 33 in data set [2]; 34 in data set [3]; -27 in data set [4]; 22 in data set [5]; -14 in data set [6].
`O=C(O)C(=O)O.Oc1ccc(Br)cc1CN1CCN(Cc2cccc(F)c2)CC1`: the “% Cell Death” value in data set [1] is 86; in data set [2] it was 107; in data set [3], 103; in data set [4], 112; in data set [5] it was 101; in data set [6] it was 94.
With `FC(F)(F)c1cccc(Nc2nc3ccccc3nc2Nc2cccc(C(F)(F)F)c2)c1`, the “% Cell Death” value was 3 in data set [1]; -15 in data set [2]; 25 in data set [3]; -12 in data set [4]; 15 in data set [5]; 15 in data set [6].
Regarding `Cc1ccc2nc(C)cc(Nc3cccc(C(F)(F)F)c3)c2c1.Cl`, the “% Cell Death” value in data set [1] is reported as -9; in data set [2], -13; in data set [3], 72; in data set [4], 44; in data set [5] it was 38; in data set [6], 15.

These data come from ChEMBL document CHEMBL3301472, “MMV Malaria Box HIV and cytotoxicity screening”.
